Reference: the supplement of paper PMC5412046
Counter-ions that a name gives are not always drawn.

Key:
[1] = tested on: SB.mhdgc-1; assay: viability at highest tested concentration (MAXR) relative to DMSO; higher = less cytotoxic; conditions: SB.mhdgc-1 (hereditary c.1380delA CDH1 gastric cancer)
How it was run: (§1)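 Viability values are normalised to DMSO and given either at the highest concentration or as trapezoidal area under the curve. The assay used 500 hereditary or sporadic patient-derived gastric cancer cells in 5 μL medium per 1536 well, dosed by pintool with 23 nL of compound in DMSO at 11 threefold-diluted concentrations. CellTiter-Glo was added 48 h later for 30 min at room temperature, followed by luminescence reading on a ViewLux.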

[2] = tested on: SB.msgc-1; assay: as above; conditions: SB.msgc-1 (sporadic gastric cancer)
How it was run: as §1

[3] = tested on: SB.mhdgc-1; assay: area under the dose-response curve of % viability (trapezoidal, 11 doses) (% viability x log10 concentration); higher = less cytotoxic; conditions: SB.mhdgc-1 (hereditary c.1380delA CDH1 gastric cancer)
How it was run: as §1

[4] = tested on: SB.msgc-1; assay: as above; conditions: SB.msgc-1 (sporadic gastric cancer)
How it was run: as §1

| Structure (SMILES) | viability [1] [%] | viability [2] [%] | area under the dose-response curve [3] | area under the dose-response curve [4] |
| --- | --- | --- | --- | --- |
| CCOC(=O)\C1=C\[C@@H](OC(CC)CC)[C@H](NC(C)=O)[C@@H](N)C1 [Oseltamivir phosphate] (top concentration 46.0829 µM) | 144 | 92.5 | 529 | 531 |
| C[C@](O)(COc1ccc(C#N)cc1)C(=O)Nc1ccc(C#N)c(C(F)(F)F)c1 [Ostarine] (top concentration 46.0829 µM) | 66.9 | 21 | 469 | 301 |
| COC1=C(CC=C(C)C)C2=C(\C=C/C(=O)O2)C=C1 [Osthol] (top concentration 46.0829 µM) | 41.5 | 63.8 | 464 | 517 |
| [O-]C(=O)C/1=N/C(=O)NC(=O)N1 [Oteracil potassium] (top concentration 23.0415 µM) | 56.9 | 80.2 | 411 | 458 |
| Cc1onc(-c2ccccc2)c1C(=O)N[C@@H]1C(=O)N2[C@@H]1SC(C)(C)[C@@H]2C(=O)[O-].[Na+] [Oxacillin sodium] (top concentration 46.0829 µM) | 111 | 133 | 606 | 549 |
| O=C1[O][Pt]2([NH]C3CCCCC3[NH]2)[O]C1=O (configuration not stated) [Oxaliplatin] (top concentration 46.0829 µM) | 21.6 | 57.1 | 451 | 463 |
| O=C(C=CC#Cc1cccc(N[S+](=O)([O-])c2ccccc2)c1)NO [Oxamflatin] (top concentration 46.0829 µM) | 19.8 | 9.38 | 403 | 379 |
| C[C@]12COC(=O)C[C@@H]1CC[C@@H]1[C@@H]2CC[C@@]2(C)[C@H]1CC[C@]2(C)O [Oxandrolone] (top concentration 46.0829 µM) | 85.3 | 102 | 542 | 542 |
| NC(=O)N1c2ccccc2CC(=O)c2ccccc21 [Oxcarbazepine] (top concentration 46.0829 µM) | 119 | 112 | 548 | 525 |
| COC(=O)Nc1nc2ccc([S+]([O-])c3ccccc3)cc2[nH]1 (configuration not stated) [Oxfendazole] (top concentration 46.0829 µM) | 59.2 | 37.7 | 438 | 472 |
| CCCOc1ccc2[nH]c(NC(=O)OC)nc2c1 [Oxibendazole] (top concentration 46.0829 µM) | 53.5 | 44.5 | 389 | 297 |
| CCN(CC)CC#CCOC(=O)C(O)(c1ccccc1)C1CCCCC1 (configuration not stated) [Oxybutynin chloride] (top concentration 46.0829 µM) | 95.3 | 88.2 | 551 | 515 |
| O=C1CCC[C@@H]2[C@H]3CCC[N+]4([O-])CCC[C@@H](CN12)[C@@H]34 (some centres not stated) [Oxymatrine] (top concentration 46.0829 µM) | 134 | 122 | 504 | 525 |
| Cc1cc(C(C)(C)C)c(O)c(C)c1CC1=NCCN1 [Oxymetazoline hydrochloride] (top concentration 46.0829 µM) | 79.9 | 117 | 473 | 522 |
| CN(C)[C@H]\1[C@@H]2[C@@H](O)[C@H]3\C(=C(O)/[C@]2(O)C(=O)\C(=C1O)C(N)=O)C(=O)C4=C(C=CC=C4O)[C@@]3(C)O [Oxytetracycline] (top concentration 46.0829 µM) | 141 | 82.9 | 588 | 539 |
| O=C(O)/C=C/c1ccc(Cn2ccnc2)cc1 [Ozagrel hydrochloride] (top concentration 46.0829 µM) | 118 | 113 | 585 | 546 |
| O=[N+]([O-])c1cn2c(n1)OC[C@@H](OCc1ccc(OC(F)(F)F)cc1)C2 [PA-824] (top concentration 46.0829 µM) | 61.5 | 36.8 | 415 | 487 |
| C=CCc1cccc(/C=N/NC(=O)CN2CCN(Cc3ccccc3)CC2)c1O [PAC-1] (top concentration 46.0829 µM) | 13.1 | 20.4 | 521 | 445 |
| COc1cccc2c1CCCC2CCCN1CCN(C2CCCCC2)CC1 (configuration not stated) [PB-28] (top concentration 46.0829 µM) | 9.75 | 60.2 | 482 | 529 |
| COc1ccc(-c2c(-c3ccc(O)cc3O)n[nH]c2C)cc1 [PDHK RIKEN] (top concentration 92.1659 µM) | 88.1 | 66.6 | 560 | 518 |
| FC1=CC=C(CN2\C=C/C=C(/C(=O)N[C@@H](COC3=CC4=C(NC(=O)N4)C=C3)C5=CC=CC=C5)C2=O)C=C1F [PDK1 inhibitor] (top concentration 46.0829 µM) | 60.7 | 44.8 | 469 | 467 |
| C[C@]1(CO)CN(c2cc(C(=O)Nc3ccc4c(c3)-c3c(c(C(N)=O)nn3-c3ccc(F)cc3)CC4)c(Cl)cn2)C[C@@]1(C)CO [PF-184] (top concentration 46.0829 µM) | 30.3 | 54.5 | 450 | 496 |
| Cc1cc(C[S+](=O)([O-])c2ccccc2)cc(OCc2ccc(CN3CCC[C@@H]3CO)cc2)c1 [PF-543] (top concentration 46.0829 µM) | 57.5 | 43 | 483 | 488 |
